Measurements as given in patent US20200002670A1, “Generation of Endocrine Progenitor Cells from Human Pluripotent Stem Cells Using Small Molecules” (Novo Nordisk A/S, priority 2013, published 2020).

How the values were obtained:
Type in all cases: cell-based, human
[1] = test system: pancreatic endoderm cells; experiment: NGN3/NKX2.2 double positive cells by immunostaining and InCell imaging after PE to EP differentiation
Protocol: After three days of EP differentiation, at EP day 4, media were aspirated followed by fixation of the cells at room temperature for 30 min with 4% paraformaldehyde (VWR, 97.131.000). Cells were washed with PBS and permeabilized with 0.5% Triton X-100 (Sigma, 9002-93-1) for 10 min, washed and blocked in 0.5% TNB-buffer (Perkin Elmer) for 30 min at room temperature. Primary antibodies, sheep anti-NGN3 (R&D systems #AF3444) and rabbit anti-NKX2.2 (Sigma #HPA003468) were diluted 1:1000 and 1:500, respectively, in 0.1% Triton X-100 in PBS and added to each well for overnight incubation at 4° C. Cells were washed three times with PBS. DAPI (4′,6-diamidino-2-phenylindole, Applichem, A4099.0010) and secondary antibodies, Alexa Fluor 488 donkey anti-goat and Alexa Fluor 594 donkey anti-rabbit (both Invitrogen) were diluted 1:1000 in 0.1% Triton X-100 in PBS and added to each well for 45 min. Cells were washed five times and left in 200 μL PBS for imaging. Imaging was performed using the InCell Analyzer 2000 (GE Healthcare). 4 fields per well with 10× objective were captured. The total cell number based in the DAPI counterstaining and the number of NGN3/NKX2.2 double positive cells was determined using InCell Developer Toolbox 1.8 (GE Healthcare). The fraction of NGN3/NKX2.2 double positive cells were quantified using the InCell developer toolbox software (GE Healthcare) and normalized to the combined protocol K&N (example 2) on each plate and the % effect was calculated (% effect NGN3/NKX2.2 double positive=((S−Sneg)/(|Spos−Sneg|))*100). Wherein S is % NGN3/NKX2.2 double positive cells for a given compound combination, Sneg and Spos are % NGN3/NKX2.2 double positive cells for the negative control and combined protocol K&N, respectively).
An EP cell population was prepared according to examples 1 and 2. However, in addition to the reagents used in example 2 the small molecules listed in table 3 were added for three days at concentrations specified in table 3 below in concentrations as shown. After three days of EP differentiation media were aspirated followed by fixation of the cells at room temperature for 30 min with 4% paraformaldehyde (VWR, 97.131.000). Cells were washed with PBS and permeabilized with 0.5% Triton X-100 (Sigma, 9002-93-1) for 10 min, washed and blocked in 0.5% TNB-buffer (Perkin Elmer) for 30 min at room temperature. Primary antibodies, sheep anti-NGN3 (R&D systems #AF3444) and rabbit anti-NKX2.2 (Sigma #HPA003468) were diluted 1:1000 and 1:500, respectively, in 0.1% Triton X-100 in PBS and added to each well for overnight incubation at 4° C. Cells were washed three times with PBS. DAPI (4′,6-diamidino-2-phenylindole, Applichem, A4099.0010) and secondary antibodies, Alexa Fluor 488 donkey anti-goat and Alexa Fluor 594 donkey anti-rabbit (both Invitrogen) were diluted 1:1000 in 0.1% Triton X-100 in PBS and added to each well for 45 min. Cells were washed five times and left in 200 μL PBS for imaging.
Imaging was performed using the InCell Analyzer 2000 (GE Healthcare). 4 fields per well with 10× objective were captured. The total cell number based in the DAPI counterstaining and the number of NGN3/NKX2,2 double positive cells was determined using InCell Developer Toolbox 1.8 (GE Healthcare). The fraction of NGN3/NKX2.2 double positive cells were quantified using the InCell developer toolbox software (GE Healthcare) and normalized to the combined protocol K&N on each plate and the % effect was calculated (% effect NGN3/NKX2.2 double positive=((S−Sneg)/(|Spos−Sneg|))*100). Wherein S is % NGN3/NKX2.2 double positive cells for a given compound combination, Sneg and Spos are % NGN3/NKX2.2 double positive cells for the negative control and combined protocol K&N, respectively).

[2] = test system: SA121 (hES) derived pancreatic endoderm cells; experiment: NGN3/NKX2.2 double positive cells by imaging, small molecule combinations, SA121 (hES); conditions: Method of example 2 + 2.5 μM DAPT
Protocol: (§1) An EP cell population was prepared according to example 2. However, in addition to the reagents used in example 2, certain small molecules listed in table 3 were added either alone or in combination during the three days of EP differentiation. After three days of EP differentiation media were aspirated followed by fixation of the cells at room temperature for 30 min with 4% paraformaldehyde (VWR, 97.131.000). Cells were washed with PBS and permeabilized with 0.5% Triton X-100 (Sigma, 9002-93-1) for 10 min, washed and blocked in 0.5% TNB-buffer (Perkin Elmer) for 30 min at room temperature. […] Cells were washed three times with PBS. DAPI (4',6-diamidino-2-phenylindole, Applichem, […]10) and secondary antibodies, Alexa Fluor 488 donkey anti-goat and Alexa Fluor 594 donkey anti-rabbit (both Invitrogen) were diluted 1:1000 in 0.1% Triton X-100 in PBS and added to each well for 45 min. Cells were washed five times and left in 200 μL PBS for imaging. Imaging was performed using the InCell Analyzer 2000 (GE Healthcare). 4 fields per well with 10× objective were captured.

[3] = test system: CHiPS2 (iPS) derived pancreatic endoderm cells; experiment: NGN3/NKX2.2 double positive cells by imaging, small molecule combinations, CHiPS2 (iPS); conditions: Method of example 2 + 2.5 μM DAPT
Protocol: as §1

[4] = 0.1 μM added to method of example 2 for three days
[5] = 1 μM added to method of example 2 for three days
[6] = 5 μM added to method of example 2 for three days
[7] = 10 μM added to method of example 2 for three days
[8] = 0.5 μM added to method of example 2 for three days

Row | SMILES | % effect NGN3/NKX2.2 double positive cells [1, 5] | % effect NGN3/NKX2.2 double positive cells [1, 6] | % effect NGN3/NKX2.2 double positive cells [1, 7] | also measured
1 | COc1cc2ncnc(Nc3ccc(F)c(Cl)c3)c2cc1OCCCN1CCOCC1 [Gefitinib] | 311% | 325% |  | % effect NGN3/NKX2.2 double positive cells [1, 4]: 222%
2 | CN(C)c1ccc(/C=C2/C(=O)Nc3ccccc32)cc1 [DMBI, (Z)-3-[4-(Dimethylamino)benzylidenyl]indolin-2-one] |  | 167% | 231% | 
3 | CCC(=O)Nc1ccc2ncnc(Nc3cccc(Br)c3)c2c1 [PD174265] | 240% | 374% | 274% | 
4 | c1ccc2c(-c3ccncc3)c[nH]c2c1 [Rockout] |  | 208% | 199% | 
5 | CCOc1nc(NC(=O)Cc2cc(OC)ccc2OC)cc(N)c1C#N [JNK VIII] | 204% | 315% | 308% | % effect NGN3/NKX2.2 double positive cells [1, 4]: 160%; % effect NGN3/NKX2.2 double positive cells [1, 8]: 156%
6 | C[C@H](NC(=O)Cc1cc(F)cc(F)c1)C(=O)N[C@H](C(=O)OC(C)(C)C)c1ccccc1 [DAPT] |  |  |  | % effect NGN3/NKX2.2 double positive cells [1, 8]: 150%; % effect NGN3/NKX2.2 double positive cells ([1]; 2.5 μM added to method of example 2 for three days): 350%; % effect NGN3/NKX2.2 double positive cells ([1]; 25 μM added to method of example 2 for three days): 300%; % effect NGN3/NKX2.2 double positive cells, SA121 (hES) [2]: 165%; % effect NGN3/NKX2.2 double positive cells, CHiPS2 (iPS) [3]: 167%
7 | O=C(c1ccccc1)c1ccc(N2CCOCC2)cc1O [DNA-PK inhibitor V] |  | 370% |  | 
8 | COc1cccc(-c2cc(=O)c3ccccc3o2)c1N [PD98059] | 165% |  |  | 
9 | CC(C)CC(NC(=O)C(Cc1ccccc1)CC(O)C(Cc1ccccc1)NC(=O)OC(C)(C)C)C(=O)NC(Cc1ccccc1)C(N)=O (stereo not shown) [L6] |  |  |  | % effect NGN3/NKX2.2 double positive cells ([1]; 50 μM added to method of example 2 for three days): 150%
10 | Cn1cc(/C=C2\C(=O)Nc3ccc(S(N)(=O)=O)cc32)c2ccccc21 [Syk inhibitor] | 157% |  |  | 
11 | Cc1cccc(-c2nc(C(C)(C)C)[nH]c2-c2ccc3c(c2)OCO3)n1.Cl [TGFbRI inhibitor III] |  | 182% |  | 
12 | Cn1cnc2cc3c(Nc4cccc(Br)c4)ncnc3cc21 [BPIQ-I] |  |  | 350% | 
13 | CSc1nc(-c2ccc(F)cc2)c(-c2ccnc(NC(C)c3ccccc3)c2)[nH]1 (stereo not shown) [p38 inhibitor III] |  | 191% | 153% | 
14 | C[C@H](NC(=O)Cc1cc(F)cc(F)c1)C(=O)N[C@@H]1C(=O)N(C)c2ccccc2-c2ccccc21 [CompE] |  |  |  | % effect NGN3/NKX2.2 double positive cells ([1]; 5 nM added to method of example 2 for three days): 250%; % effect NGN3/NKX2.2 double positive cells ([1]; 50 nM added to method of example 2 for three days): 325%; % effect NGN3/NKX2.2 double positive cells ([1]; 500 nM added to method of example 2 for three days): 395%
